Structures can show the parent of a compound that is named as a salt.
Experiments:
[1] = Solid form hygroscopicity and stability; assay type: physicochemical; conditions: exposed to moisture
Method: Dynamic Vapor Sorption: The hygroscopicity of N-(cyanomethyl)-4-(2-(4-morpholinophenylamino)pyrimidin-4-yl)benzamide dihydrochloride monohydrate Form II was evaluated at room temperature using a dynamic vapor sorption (DVS) instrument (TGA Q5000 TA Instruments, New Castle, Del.). Water adsorption and desorption were studied as a function of relative humidity (RH) over the range of 0 to 90% at room temperature. The humidity in the chamber was increased from the initial level 50% RH) to 60% RH and held until the solid and atmosphere reached equilibration. The equilibrium test was continued until passed or expired after 10 hours. At this point, RH was raised 10% higher and the process was repeated until 90% RH was reached and equilibrated. During this period, the water sorption was monitored. For desorption, the relative humidity was decreased in a similar manner to measure a full sorption/desorption cycle. All experiments were operated in dm/dt mode (mass variation over time) to determine the equilibration endpoint. Approximately 4 mg of solid CYT-0387 was used. Data analysis was conducted using Universal Analysis 2000 Version 4.7A (TA Instruments, New Castle, Del., USA).

[2] = Mass balance/recovery, metabolite profile, pharmacokinetics and safety of radiolabeled CYT-0387; assay type: in vivo, human; conditions: for share of circulating radioactivity: plasma
Method: CYT-0387 is a selective small molecule inhibitor of Janus kinase 1 and 2 (JAK1/JAK2) currently under investigation to treat myelofibrosis. This study evaluated the mass balance/recovery, metabolite profile, pharmacokinetics, and safety of radiolabeled CYT-0387 in humans.
Six healthy individuals (subjects) received a single oral dose of 200 mg CYT-0387 containing ˜100 μCi of [^14C]-CYT-0387. Blood samples were collected up to 21 days or until plasma radioactivity in 2 consecutive samples was below detection limit or urine and feces sampling was discontinued. Urine/feces samples were collected up to 21 days or until ≧90% administered dose was recovered in feces and urine and radioactivity in 2 consecutive sampling intervals were ≦1% administered dose. Plasma concentrations of CYT-0387 and metabolites were measured using LC-MS/MS and total radioactivity assessed by liquid scintillation counting. Metabolite profiling was performed in select urine, feces, and plasma samples. Safety assessments were performed throughout the study.

Structure (SMILES)	hygroscopicity and physical stability [1]	share of circulating radioactivity [2]	excreted in feces [2]	excreted in urine ([2]; urine)
N#CCNC(=O)c1ccc(-c2ccnc(Nc3ccc(N4CCOCC4)cc3)n2)cc1 [N-(cyanomethyl)-4-(2-(4-morpholinophenylamino)pyrimidin-4-yl)benzamide (CYT-0387) dihydrochloride anhydrous Form I]	hygroscopic and physically unstable			
NC(=O)CNC(=O)c1ccc(-c2ccnc(Nc3ccc(N4CCOCC4=O)cc3)n2)cc1 [Compound M8, N-(2-amino-2-oxoethyl)-4-(2-((4-(3-oxomorpholino)phenyl)amino)pyrimidin-4-yl)benzamide]		5.8%		
CC(=O)Nc1ccc(Nc2nccc(-c3ccc(C(=O)NCC#N)cc3)n2)cc1 [Compound M20, 4-(2-((4-acetamidophenyl)amino)pyrimidin-4-yl)-N-(cyanomethyl)benzamide]		2.3%		
N#CCNC(=O)c1ccc(-c2ccnc(Nc3ccc(N4CCOCC4=O)cc3)n2)cc1 [Compound M21, N-(cyanomethyl)-4-(2-{[4-(3-oxomorpholin-4-yl)phenyl]amino}pyrimidin-4-yl)benzamide]		64.2%	12.7 % of the dose	11.5 % of the dose
O=C(O)c1ccc(-c2ccnc(Nc3ccc(N4CCOCC4=O)cc3)n2)cc1 [Compound M14, 4-(2-((4-(3-oxomorpholino)phenyl)amino)pyrimidin-4-yl)benzoic acid]			21.4 % of the dose	

— patent US9469613B2, “(N-(cyanomethyl)-4-(2-(4-morpholinophenylamino)pyrimidin-4-yl)benzamide” (Gilead Sciences, Inc., priority 2014, dated 2016)
